Active and inactive are the calls of the source. No cut-off for these calls is given here.
What was measured:
[1] = molecular target: Dual specificity tyrosine-phosphorylation-regulated kinase 1A (Homo sapiens, UniProt Q13627); test: Inhibition of DYRK1A (unknown origin) using KISGRLSPIMTEQ as substrate incubated for 30 mins in presence of ATP by UFLC-based fluorimetric analysis
[2] = molecular target: Dual specificity tyrosine-phosphorylation-regulated kinase 1A (Rattus norvegicus, UniProt Q63470); test: Inhibition of recombinant 6His-tagged rat DYRK1A (1 to 502 residues) expressed in Escherichia coli BL21 (DE3) cells using KISGRLSPIMTEQ as substrate incubated for 30 mins in presence of ATP by absorbance based assay
Mus musculus [3] = test: Effect on spatial working memory in Dp1Yey C57BL/6J mouse model assessed as reduction in mean speed at 40 mg/kg, po administered 5 days per week for 2 months by Y-maze test; type: functional, organism-based
[4] = molecular target: Mitogen-activated protein kinase 3 (Homo sapiens) (UniProt P27361); test: Inhibition of ERK1 (unknown origin) at 0.5 uM
Sequence of Mitogen-activated protein kinase 3 (Homo sapiens) (P27361 whole entry): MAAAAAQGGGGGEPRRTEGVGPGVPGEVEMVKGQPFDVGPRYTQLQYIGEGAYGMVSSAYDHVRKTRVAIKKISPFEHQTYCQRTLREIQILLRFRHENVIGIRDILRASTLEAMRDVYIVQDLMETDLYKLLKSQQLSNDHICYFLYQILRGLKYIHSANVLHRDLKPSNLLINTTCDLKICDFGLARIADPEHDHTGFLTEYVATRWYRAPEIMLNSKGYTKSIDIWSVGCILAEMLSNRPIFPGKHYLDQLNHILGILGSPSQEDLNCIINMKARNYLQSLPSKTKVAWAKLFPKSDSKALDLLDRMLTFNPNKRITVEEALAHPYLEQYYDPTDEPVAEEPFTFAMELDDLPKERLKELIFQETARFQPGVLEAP

[5] = Stability in human plasma at 1 uM incubated for 120 mins by LC-MS/MS analysis; type: ADME, cell-free; details: 2 h
[6] = molecular target: Glycogen synthase kinase-3 beta (Homo sapiens) (UniProt P49841); test: Inhibition of GSK3beta (unknown origin) at 0.5 uM
Sequence of Glycogen synthase kinase-3 beta (Homo sapiens) (P49841 whole entry, looked up): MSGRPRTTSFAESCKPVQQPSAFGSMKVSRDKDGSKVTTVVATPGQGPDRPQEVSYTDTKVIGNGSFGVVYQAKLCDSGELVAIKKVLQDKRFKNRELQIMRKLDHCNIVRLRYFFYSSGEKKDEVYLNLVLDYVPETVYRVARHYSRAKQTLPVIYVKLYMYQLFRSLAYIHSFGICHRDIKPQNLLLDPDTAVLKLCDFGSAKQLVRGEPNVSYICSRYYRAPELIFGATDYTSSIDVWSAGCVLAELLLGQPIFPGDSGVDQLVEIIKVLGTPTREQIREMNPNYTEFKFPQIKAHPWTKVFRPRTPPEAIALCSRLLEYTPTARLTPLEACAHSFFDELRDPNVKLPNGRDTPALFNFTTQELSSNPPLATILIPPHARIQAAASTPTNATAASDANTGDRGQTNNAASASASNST

Mus musculus [7] = test: Effect on spatial working memory in Dp1Yey C57BL/6J mouse model assessed as reduction in total distance travelled at 40 mg/kg, po administered 5 days per week for 2 months by Y-maze test; type: functional, organism-based
[8] = Drug concentration in brain of Dp1Yey C57BL/6J mouse model at 50 mg/kg by UHPLC-MS/MS analysis; type: ADME, organism-based; details: in vivo, read-out: Ct
[9] = Drug concentration in wildtype mouse brain at 50 mg/kg by UHPLC-MS/MS analysis; type: ADME, organism-based; details: in vivo, read-out: Ct
Mus musculus [10] = test: In vivo inhibition of DYRK1A in C57BL/6J mouse model carrying murine BACtgDyrk1a assessed as decrease in phosphorylated ERK to ERK ratio in brain administered intraperitoneally and measured after 24 hrs; type: functional; details: route ip
Mus musculus [11] = test: Effect on spatial working memory in Dp1Yey C57BL/6J mouse model assessed as reduction in time spent in center at 40 mg/kg, po administered 5 days per week for 2 months by Y-maze test; type: functional, organism-based
Mus musculus [12] = test: Cognitive enhancing effect in Dp1Yey C57BL/6J mouse model assessed as increase in percentage of spontaneous alternation at 40 mg/kg, po administered 5 days per week for 2 months by Y-maze test; type: functional, organism-based
[13] = molecular target: Mitogen-activated protein kinase 1 (Homo sapiens) (UniProt P28482); test: Inhibition of ERK2 (unknown origin) at 0.5 uM
Sequence of Mitogen-activated protein kinase 1 (Homo sapiens) (P28482 whole entry): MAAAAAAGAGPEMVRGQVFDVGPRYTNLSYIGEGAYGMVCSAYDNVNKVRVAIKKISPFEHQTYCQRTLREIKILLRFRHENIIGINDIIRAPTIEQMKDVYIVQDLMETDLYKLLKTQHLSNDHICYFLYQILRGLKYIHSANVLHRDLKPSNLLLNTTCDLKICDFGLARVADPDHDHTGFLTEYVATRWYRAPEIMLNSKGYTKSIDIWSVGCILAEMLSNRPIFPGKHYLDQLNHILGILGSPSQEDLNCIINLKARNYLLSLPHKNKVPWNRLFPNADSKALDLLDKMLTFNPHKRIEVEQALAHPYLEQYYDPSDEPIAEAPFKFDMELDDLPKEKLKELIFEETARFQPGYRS

Homo sapiens = species: Homo sapiens; test: Inhibition of PI3K (unknown origin) at 0.5 uM
[14] = molecular target: Tyrosine-protein kinase Fyn (Homo sapiens) (UniProt P06241); test: Inhibition of FYN (unknown origin) at 0.5 uM
Sequence of Tyrosine-protein kinase Fyn (Homo sapiens) (P06241 2-537 limits assumed): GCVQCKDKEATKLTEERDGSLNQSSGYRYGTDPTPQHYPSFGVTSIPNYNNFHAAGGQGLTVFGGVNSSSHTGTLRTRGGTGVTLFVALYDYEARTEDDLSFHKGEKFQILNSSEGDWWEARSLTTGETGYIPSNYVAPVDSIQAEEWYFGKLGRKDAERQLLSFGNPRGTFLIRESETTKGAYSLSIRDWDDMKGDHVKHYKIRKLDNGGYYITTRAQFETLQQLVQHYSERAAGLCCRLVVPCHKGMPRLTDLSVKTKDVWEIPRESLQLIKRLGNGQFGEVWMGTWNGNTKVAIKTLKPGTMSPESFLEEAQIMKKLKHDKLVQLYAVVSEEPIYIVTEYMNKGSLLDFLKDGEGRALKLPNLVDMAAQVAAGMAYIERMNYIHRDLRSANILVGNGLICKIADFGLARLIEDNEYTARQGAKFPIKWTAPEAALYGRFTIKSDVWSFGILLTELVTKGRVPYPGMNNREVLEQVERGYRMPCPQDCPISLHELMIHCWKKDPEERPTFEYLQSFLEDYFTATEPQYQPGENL

In the case of Oc1cc(O)c2c(c1)CC(c1ccccc1)NC2 (stereo not given), the IC50 [1] is reported as over 20 µM.
Compound O=C(c1ccccc1)N1Cc2c(O)cc(O)cc2CC1C1CCCCC1 (stereo not given) has an IC50 [1] of over 20 µM.
COc1cccc(C(=O)N2Cc3c(cc(OC)cc3OC)CC2c2cc(OC)c(OC)c(OC)c2)c1 (stereo not given) showed an IC50 [1] of over 20 µM.
In the case of COc1ccc(C(=O)N2Cc3c(cc(OC)cc3OC)CC2C2CCCCC2)cc1 (stereo not given), the IC50 [1] is reported as over 20 µM.
Oc1cc(O)c2c(c1)CC(C1CCCCC1)NC2 (stereo not given) gave an IC50 [1] of over 20 µM.
With COc1cc2c(c(OC)c1)CN(C(=O)c1ccccc1)C(c1cc(OC)c(OC)c(OC)c1)C2 (stereo not given) the IC50 [1] was over 20 µM.
With O=C(c1ccc(O)cc1)N1Cc2c(O)cc(O)cc2CC1C1CCCCC1 (stereo not given) the IC50 [1] was over 20 µM.
COc1cc2c(c(OC)c1)CN(C(=O)c1ccccc1)C(C1CCCCC1)C2 (stereo not given) gave an IC50 [1] of over 20 µM.
Work on Oc1ccc(-c2cnc3[nH]cc(-c4ccc(F)cc4)c3c2)cc1O yielded an IC50 [2] of 0.02 µM.
With COc1cc2c(c(OC)c1)CNC(c1ccccc1)C2 (stereo not given) the IC50 [1] was over 20 µM.
With O=C(c1cc(O)c(O)c(O)c1)N1Cc2c(O)cc(O)cc2CC1c1cc(O)c(O)c(O)c1 (stereo not given) the Activity (Mus musculus [3]) was “inactive”, the inhibition [4] was “inactive” and the Stability [5] was “Stable”. The inhibition [6] was “inactive”, the Activity (Mus musculus [7]) was “inactive” and the concentration [8] was 27.6 nM. For the same compound, the concentration [9] was 38.2 nM, the inhibition (Mus musculus [10]) was “Active” and the Activity (Mus musculus [11]) was “inactive”. For the same compound, the Activity (Mus musculus [12]) was “Active”, the inhibition [13] was “inactive” and the inhibition (Homo sapiens) was “Active”. The inhibition [14] was “Active”.
For COc1cc2c(c(OC)c1)CNC(C1CCCCC1)C2 (stereo not given), the IC50 [1] was over 20 µM.
For O=C(O[C@@H]1Cc2c(O)cc(O)cc2O[C@@H]1c1cc(O)c(O)c(O)c1)c1cc(O)c(O)c(O)c1 [EPIGALOCATECHIN GALLATE], the IC50 [1] was 0.2 µM.

— ChEMBL document CHEMBL5518187, “EGCG-like non-competitive inhibitor of DYRK1A rescues cognitive defect in a down syndrome model” (Eur J Med Chem, 2024)
